This is an account of results in patent US11826351B2, “Compounds useful as kinase inhibitors” (Loxo Oncology, Inc., priority 2015, dated 2023).

In assay [1] the target is T1, Recombinant BTK^C481S kinase (Homo sapiens, UniProt Q06187, C481S).
T1 construct: purchased SignalChem
The assay is described as follows: BTK C481S binding affinity (LanthaScreen TR-FRET). The conditions noted are these: Kinase Tracer 236, 5 h incubation. The method, boiled down:
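BTK C481S tracer-displacement TR-FRET: 5 nM His-tagged kinase, 2 nM Eu anti-His antibody and 30 nM Kinase Tracer 236 incubated with titrated inhibitor for 5 h in Kinase Buffer A. Read at 340 nm excitation, 615/665 nm emission; IC50 from variable-slope log[inhibitor]–response fit.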
Background: Time-resolved FRET reads energy transfer from a long-lived donor to a nearby acceptor.

Assay [2] deals with OCI-Ly10 human DLBCL cells. In words: OCI-Ly10 anti-proliferative activity (Resazurin). The format is cell-based. The conditions noted are these: OCI-Ly10 cells, 72 h compound treatment, Resazurin, read-out: Proliferation Assay OCI-Ly10-20% FBS. The method in brief:
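A separate untreated plate gave the Day 0 reading, measured by Resazurin fluorescence at 590 nm after 5 h. The average Day 0 value was subtracted from each treated well, and results were expressed as percent of DMSO control. IC50 values came from a log[Inhibitor] vs response Variable Slope fit in Graphpad prism.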

In the next assay the target is T2, Recombinant EGFR (Homo sapiens, UniProt P00533).
T2 construct: purchased Invitrogen
The assay is described as follows: EGFR binding affinity (LanthaScreen TR-FRET). The conditions noted are these: Kinase Tracer 199, 5 h incubation. The method in brief:
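Compounds were titrated against recombinant EGFR and binding was followed by LanthaScreen time-resolved FRET.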

Assay [3] has as its target T3, Recombinant BTK^WT kinase (Homo sapiens, UniProt Q06187).
T3 construct: purchased Invitrogen
In words: BTK WT binding affinity (LanthaScreen TR-FRET). The conditions noted are these: Kinase Tracer 236, 5 h incubation. The method, boiled down:
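IC50 obtained by variable-slope fit of TR-FRET signal (ex 340 nm; em 615 and 665 nm) versus inhibitor concentration. Reaction held for 5 h in LanthaScreen Kinase Buffer A with 2.5 nM His-tagged BTK^WT, 15 nM Kinase Tracer 236 and 2 nM Eu anti-His antibody.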

Each structure is given as a SMILES string. Like-named read-outs stand apart in the source and are kept apart here. Some results are limits rather than exact numbers.

T2 sequence (P00533 25-1210): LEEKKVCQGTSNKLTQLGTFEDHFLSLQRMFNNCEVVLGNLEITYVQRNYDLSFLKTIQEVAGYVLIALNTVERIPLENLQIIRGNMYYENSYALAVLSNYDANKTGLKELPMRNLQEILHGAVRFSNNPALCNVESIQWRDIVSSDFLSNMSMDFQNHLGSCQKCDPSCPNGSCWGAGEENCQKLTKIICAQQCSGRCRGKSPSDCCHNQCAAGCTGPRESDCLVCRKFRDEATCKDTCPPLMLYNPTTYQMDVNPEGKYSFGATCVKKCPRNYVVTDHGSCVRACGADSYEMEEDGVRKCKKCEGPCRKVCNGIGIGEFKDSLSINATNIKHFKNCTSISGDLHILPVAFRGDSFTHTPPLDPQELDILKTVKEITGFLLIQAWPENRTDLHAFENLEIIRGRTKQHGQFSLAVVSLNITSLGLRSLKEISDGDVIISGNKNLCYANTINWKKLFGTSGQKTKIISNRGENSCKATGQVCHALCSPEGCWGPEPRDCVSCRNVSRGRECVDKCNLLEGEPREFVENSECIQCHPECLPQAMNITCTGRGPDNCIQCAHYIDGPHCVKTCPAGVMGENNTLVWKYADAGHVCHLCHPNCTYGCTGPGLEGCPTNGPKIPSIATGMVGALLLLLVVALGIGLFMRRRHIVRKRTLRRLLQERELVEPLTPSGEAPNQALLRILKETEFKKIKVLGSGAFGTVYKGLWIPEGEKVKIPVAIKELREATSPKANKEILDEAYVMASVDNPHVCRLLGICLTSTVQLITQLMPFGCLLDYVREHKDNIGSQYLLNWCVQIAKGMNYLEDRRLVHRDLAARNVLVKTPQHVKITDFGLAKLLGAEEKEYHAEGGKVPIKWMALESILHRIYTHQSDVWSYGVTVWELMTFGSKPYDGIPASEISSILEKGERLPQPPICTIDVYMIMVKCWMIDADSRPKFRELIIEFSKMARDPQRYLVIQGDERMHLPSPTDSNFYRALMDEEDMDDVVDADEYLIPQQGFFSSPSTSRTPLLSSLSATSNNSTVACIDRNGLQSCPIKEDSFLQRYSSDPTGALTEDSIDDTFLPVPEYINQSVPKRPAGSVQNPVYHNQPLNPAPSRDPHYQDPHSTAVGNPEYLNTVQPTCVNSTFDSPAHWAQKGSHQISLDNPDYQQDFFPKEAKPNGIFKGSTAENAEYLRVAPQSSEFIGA
T3 sequence (Q06187 whole entry): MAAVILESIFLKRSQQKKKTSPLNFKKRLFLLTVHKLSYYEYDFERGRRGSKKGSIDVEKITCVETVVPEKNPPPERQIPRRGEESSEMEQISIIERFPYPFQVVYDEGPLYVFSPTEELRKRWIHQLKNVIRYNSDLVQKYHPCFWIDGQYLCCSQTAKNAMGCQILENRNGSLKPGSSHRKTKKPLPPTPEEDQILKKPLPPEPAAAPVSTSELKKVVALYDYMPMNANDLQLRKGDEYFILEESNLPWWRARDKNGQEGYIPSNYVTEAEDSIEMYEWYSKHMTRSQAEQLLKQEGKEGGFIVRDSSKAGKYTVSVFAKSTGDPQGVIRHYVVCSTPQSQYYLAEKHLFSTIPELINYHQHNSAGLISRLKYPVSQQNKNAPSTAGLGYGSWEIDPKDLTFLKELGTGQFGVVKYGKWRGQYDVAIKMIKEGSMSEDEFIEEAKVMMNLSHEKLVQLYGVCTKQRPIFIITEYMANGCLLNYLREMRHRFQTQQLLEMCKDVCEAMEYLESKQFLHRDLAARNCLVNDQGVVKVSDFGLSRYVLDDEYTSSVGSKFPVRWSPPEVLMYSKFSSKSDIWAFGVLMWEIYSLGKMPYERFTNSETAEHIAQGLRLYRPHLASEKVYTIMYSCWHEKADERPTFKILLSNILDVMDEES
T1 sequence (Q06187 whole entry C481S): as the sequence (Q06187 whole entry) above, with C481S counted along it

For the compound `COc1ccccc1C(=O)NCc1ccc(-c2nn([C@H]3CC[C@H](F)C3)c(N)c2C(N)=O)cc1` (relative stereo) [Example 41, 5-amino-1-[(1S*,3S*)-3-fluorocyclopentyl]-3-[4-[[(2-methoxybenzoyl)amino]methyl]phenyl]pyrazole-4-carboxamide], the IC50 in assay [1] is under 10 nM; in assay [2] (Homo sapiens, OCI-Ly10, 72 h), 10 to 100 nM; at Recombinant EGFR it was 100 to 1000 nM; in assay [3], under 10 nM.
Consider `COc1ccccc1C(=O)NCc1ccc(-c2nn(C3CCOC3C)c(N)c2C(N)=O)cc1` (single isomer, unassigned) [Example 77, 5-amino-3-[4-[[(2-methoxybenzoyl)amino]methyl]phenyl]-1-[2-methyltetrahydrofuran-3-yl]pyrazole-4-carboxamide], for which the IC50 in assay [1] was under 10 nM; in assay [2] it was 10 to 100 nM; at Recombinant EGFR it was 100 to 1000 nM; in assay [3], under 10 nM.
Consider `COc1ccccc1C(=O)NCc1ccc(-c2nn(C3CCC(C)(O)CC3)c(N)c2C(N)=O)cc1` (single isomer, unassigned) [Example 33, 5-Amino-1-(4-hydroxy-4-methyl-cyclohexyl)-3-[4-[[(2-methoxybenzoyl)amino]methyl]phenyl]pyrazole-4-carboxamide], for which the IC50 in assay [1] was under 10 nM; in assay [2] (Homo sapiens, OCI-Ly10, 72 h), 10 to 100 nM; at Recombinant EGFR it was 100 to 1000 nM; in assay [3], under 10 nM.
Regarding `CCOC(=O)C1CCC(n2nc(-c3ccc(CNC(=O)c4ccccc4OC)cc3)c(C(N)=O)c2N)CC1` (centres unmarked) [Example 40, Ethyl 4-[5-amino-4-carbamoyl-3-[4-[[(2-methoxybenzoyl)amino]methyl]phenyl]pyrazol-1-yl]cyclohexanecarboxylate], the IC50 is under 10 nM in assay [1]; 10 to 100 nM in assay [2] (Homo sapiens, OCI-Ly10, 72 h); 100 to 1000 nM at Recombinant EGFR; under 10 nM in assay [3].
As to `COc1ccccc1C(=O)NCc1ccc(-c2nn(C3CCC(F)(F)CC3)c(N)c2C(N)=O)cc1` [Example 68, 5-amino-1-(4,4-difluorocyclohexyl)-3-[4-[[(2-methoxybenzoyl)amino]methyl]phenyl]pyrazole-4-carboxamide], the IC50 in assay [1] is under 10 nM; in assay [2] (Homo sapiens, OCI-Ly10, 72 h), 10 to 100 nM; at Recombinant EGFR it was 100 to 1000 nM; in assay [3] it was under 10 nM.
With `COc1ccccc1C(=O)NCc1ccc(-c2nn(C3CCOC3C)c(N)c2C(N)=O)cc1` (single isomer, unassigned) [Example 84, 5-amino-3-[4-[[(2-methoxybenzoyl)amino]methyl]phenyl]-1-[2-methyltetrahydrofuran-3-yl]pyrazole-4-carboxamide], the IC50 was under 10 nM in assay [1], 1000 to 10000 nM in assay [2], 1000 to 10000 nM on Recombinant EGFR and 10 to 100 nM in assay [3].
Take `COc1ccccc1C(=O)NCc1ccc(-c2nn(C(C)C)c(N)c2C(N)=O)cc1` [Example 19, 5-amino-1-isopropyl-3-[4-[[(2-methoxybenzoyl)amino]methyl]phenyl]pyrazole-4-carboxamide]: the IC50 in assay [1] is under 10 nM; in assay [2] (Homo sapiens, OCI-Ly10, 72 h), 10 to 100 nM; at Recombinant EGFR it was 100 to 1000 nM; in assay [3] it was under 10 nM.
In the case of `COc1ccccc1C(=O)NCc1ccc(-c2nn(C(C(C)C)C(F)(F)F)c(N)c2C(N)=O)cc1` (centres unmarked) [Example 171, 5-amino-3-[4-[[(2-methoxybenzoyl)amino]methyl]phenyl]-1-[2-methyl-1-(trifluoromethyl)propyl]pyrazole-4-carboxamide], the IC50 in assay [1] was under 10 nM; in assay [2] (Homo sapiens, OCI-Ly10, 72 h) it was 100 to 1000 nM; at Recombinant EGFR it was 1000 to 10000 nM; in assay [3], 10 to 100 nM.
Turning to `COc1ccc(F)cc1C(=O)NCc1ccc(-c2nn([C@H](C)C(F)(F)F)c(N)c2C(N)=O)cc1` (single isomer, unassigned) [Example 163a, 5-amino-3-[4-[[(5-fluoro-2-methoxy-benzoyl)amino]methyl]phenyl]-1-(2,2,2-trifluoro-1-methyl-ethyl)pyrazole-4-carboxamide], the IC50 in assay [1] is under 10 nM; in assay [2], under 10 nM; at Recombinant EGFR, 1000 to 10000 nM; in assay [3], under 10 nM.
As for `CNc1c(C(N)=O)c(-c2ccc(CNC(=O)c3ccccc3OC)cc2)nn1C1CCC1` [Example 87, 1-cyclobutyl-3-[4-[[(2-methoxybenzoyl)amino]methyl]phenyl]-5-(methylamino)pyrazole-4-carboxamide], the IC50 in assay [1] is under 10 nM; in assay [2] (Homo sapiens, OCI-Ly10, 72 h), 100 to 1000 nM; on Recombinant EGFR, 100 to 1000 nM; in assay [3], under 10 nM.
Take `COc1ccccc1C(=O)NCc1ccc(-c2nn(CC(F)(F)F)c(N)c2C(N)=O)cc1` [Example 21, 5-Amino-3-[4-[[(2-methoxybenzoyl)amino]methyl]phenyl]-1-(2,2,2-trifluoroethyl)pyrazole-4-carboxamide]: the IC50 is under 10 nM in assay [1]; 100 to 1000 nM in assay [2] (Homo sapiens, OCI-Ly10, 72 h); 100 to 1000 nM at Recombinant EGFR; under 10 nM in assay [3].
Take `COc1ccccc1C(=O)NCc1ccc(-c2nn(CC(F)(F)F)c(N)c2C(N)=O)cc1F` [Example 129, 5-amino-3-[3-fluoro-4-[[(2-methoxybenzoyl)amino]methyl]phenyl]-1-(2,2,2-trifluoroethyl)pyrazole-4-carboxamide]: the IC50 in assay [1] was under 10 nM; in assay [2] (Homo sapiens, OCI-Ly10, 72 h) it was 100 to 1000 nM; on Recombinant EGFR, 1000 to 10000 nM; in assay [3], under 10 nM.
Turning to `COc1ccccc1C(=O)NCc1ccc(-c2nn(C3CCCC3)c(N)c2C(N)=O)cn1` [Example 134, 5-amino-1-cyclopentyl-3-[6-[[(2-methoxybenzoyl)amino]methyl]-3-pyridyl]pyrazole-4-carboxamide], the IC50 in assay [1] is 10 to 100 nM; in assay [2] (Homo sapiens, OCI-Ly10, 72 h) it was 1000 to 10000 nM; at Recombinant EGFR, over 10000 nM; in assay [3] it was 10 to 100 nM.
Regarding `COc1ccc(F)cc1C(=O)NCc1ccc(-c2nn(C(C)C(F)(F)F)c(N)c2C(N)=O)cc1` (centres unmarked) [Example 120, 5-amino-3-[4-[[(5-fluoro-2-methoxy-benzoyl)amino]methyl]phenyl]-1-(2,2,2-trifluoro-1-methyl-ethyl)pyrazole-4-carboxamide], the IC50 in assay [1] is under 10 nM; in assay [2] (Homo sapiens, OCI-Ly10, 72 h) it was 10 to 100 nM; at Recombinant EGFR, 1000 to 10000 nM; in assay [3] it was under 10 nM.
Take `COc1ccc(F)cc1C(=O)NCc1cc(F)c(-c2nn(C3CCOC3)c(N)c2C(N)=O)cc1F` (centres unmarked) [Example 153, 5-amino-3-[2,5-difluoro-4-[[(5-fluoro-2-methoxy-benzoyl)amino]methyl]phenyl]-1-tetrahydrofuran-3-yl-pyrazole-4-carboxamide]: the IC50 was under 10 nM in assay [1]; 100 to 1000 nM in assay [2] (Homo sapiens, OCI-Ly10, 72 h); over 10000 nM on Recombinant EGFR; 10 to 100 nM in assay [3].
The matching figures for `COc1ccccc1C(=O)NCc1ccc(-c2nn(C3CCCC3)c(N)c2C(N)=O)c(C)c1` [Example 101, 5-amino-1-cyclopentyl-3-[4-[[(2-methoxybenzoyl)amino]methyl]-2-methyl-phenyl]pyrazole-4-carboxamide]: under 10 nM, 100 to 1000 nM, over 10000 nM and 10 to 100 nM.
The like results for `COc1ccc(F)cc1C(=O)NCc1ccc(-c2nn(C3CCCOC3)c(N)c2C(N)=O)cc1F` (centres unmarked) [Example 127, 5-amino-3-[3-fluoro-4-[[(5-fluoro-2-methoxy-benzoyl)amino]methyl]phenyl]-1-tetrahydropyran-3-yl-pyrazole-4-carboxamide] were, in that order, under 10 nM, 10 to 100 nM, 1000 to 10000 nM and under 10 nM.
The like results for `CNc1c(C(N)=O)c(-c2ccc(CNC(=O)c3ccccc3OC)cc2)nn1-c1cccnc1` [Example 110, 3-[4-[[(2-methoxybenzoyl)amino]methyl]phenyl]-5-(methylamino)-1-(3-pyridyl)pyrazole-4-carboxamide] were, in that order, 10 to 100 nM, 1000 to 10000 nM, 1000 to 10000 nM and 10 to 100 nM.
Regarding `COc1ccccc1C(=O)NCc1ccc(-c2nn(C3CCCC3)c(C)c2C(N)=O)cc1` [Example 24, 1-Cyclopentyl-3-[4-[[(2-methoxybenzoyl)amino]methyl]phenyl]-5-methyl-pyrazole-4-carboxamide], the IC50 lay in the range of 10 to 100 nM in assay [1]; 100 to 1000 nM in assay [2] (Homo sapiens, OCI-Ly10, 72 h); 1000 to 10000 nM at Recombinant EGFR; 10 to 100 nM in assay [3].
For the compound `COc1ccc(F)cc1C(=O)NCc1ccc(-c2nn(CC(F)(F)F)c(N)c2C(N)=O)cc1F` [Example 128, 5-amino-3-[3-fluoro-4-[[(5-fluoro-2-methoxy-benzoyl)amino]methyl]phenyl]-1-(2,2,2-trifluoroethyl)pyrazole-4-carboxamide], the IC50 was under 10 nM in assay [1]; 10 to 100 nM in assay [2] (Homo sapiens, OCI-Ly10, 72 h); 1000 to 10000 nM on Recombinant EGFR; under 10 nM in assay [3].
